This data set concerns rodent lifetime carcinogenesis bioassay, tumor incidence TD50. Briefly: carcinogenic potency in animals, long-term in vivo studies, CPDB compilation (AID 1745844).

Structures are written as SMILES. The source made the active and inactive calls. No rule for the calls is given here.

The TD50 is the 50% point of the dose-response relation for the toxic effect studied.

As to `c1ccoc1`, the TD50 is, setting by setting: (mouse, strain B6C3F1, females, by gavage, site: adrenal medulla + liver, lesion: pheochromocytoma, benign + hepatocellular adenoma + hepatocellular carcinoma, dosed 104 weeks, study length 105 weeks) 2.26 mg/kg/day; (mouse, strain B6C3F1, females, by gavage, site: adrenal medulla, lesion: pheochromocytoma, benign, dosed 104 weeks, study length 105 weeks) 36 mg/kg/day; (mouse, strain B6C3F1, females, by gavage, site: any site (literature study), lesion: several types, types named in the paper, dosed 104 weeks, study length 105 weeks) 2.81 mg/kg/day; (mouse, strain B6C3F1, females, by gavage, site: forestomach, lesion: squamous-cell papilloma, dosed 104 weeks, study length 105 weeks) 23.8 mg/kg/day; (mouse, strain B6C3F1, females, by gavage, site: liver, lesion: carcinoma + hepatocellular carcinoma, dosed 104 weeks, study length 105 weeks) 6.85 mg/kg/day; (mouse, strain B6C3F1, females, by gavage, site: liver, lesion: hepatocellular adenoma + hepatocellular carcinoma + neoplastic nodule, dosed 104 weeks, study length 105 weeks) 2.19 mg/kg/day. The TD50 reads like this: (mouse, strain B6C3F1, females, by gavage, site: liver, lesion: hepatocellular adenoma + hepatocellular carcinoma, dosed 104 weeks, study length 105 weeks) 2.19 mg/kg/day; (mouse, strain B6C3F1, females, by gavage, site: liver, lesion: hepatocellular adenoma, dosed 104 weeks, study length 105 weeks) 2.26 mg/kg/day; (mouse, strain B6C3F1, females, by gavage, site: lung, lesion: alveolar/bronchiolar adenoma + alveolar/bronchiolar carcinoma, dosed 104 weeks, study length 105 weeks) 38.5 mg/kg/day; (mouse, strain B6C3F1, males, by gavage, site: adrenal medulla + liver, lesion: pheochromocytoma, benign + hepatocellular adenoma + hepatocellular carcinoma, dosed 104 weeks, study length 105 weeks) 3.6 mg/kg/day; (mouse, strain B6C3F1, males, by gavage, site: adrenal medulla, lesion: pheochromocytoma, benign, dosed 104 weeks, study length 105 weeks) 20.1 mg/kg/day; (mouse, strain B6C3F1, males, by gavage, site: any site (literature study), lesion: several types, types named in the paper, dosed 104 weeks, study length 105 weeks) 5.43 mg/kg/day. Further, the TD50 (mouse, strain B6C3F1, males, by gavage, site: forestomach, lesion: squamous-cell papilloma, dosed 104 weeks, study length 105 weeks) amounted to 64.6 mg/kg/day; the TD50 (mouse, strain B6C3F1, males, by gavage, site: liver, lesion: hepatocellular adenoma + hepatocellular carcinoma + neoplastic nodule, dosed 104 weeks, study length 105 weeks) turned out to be 3.6 mg/kg/day; the TD50 (mouse, strain B6C3F1, males, by gavage, site: liver, lesion: hepatocellular adenoma + hepatocellular carcinoma, dosed 104 weeks, study length 105 weeks) is 3.6 mg/kg/day; the TD50 (mouse, strain B6C3F1, males, by gavage, site: liver, lesion: hepatocellular adenoma, dosed 104 weeks, study length 105 weeks) came out at 4.02 mg/kg/day; the TD50 (mouse, strain B6C3F1, males, by gavage, site: liver, lesion: hepatocellular carcinoma, dosed 104 weeks, study length 105 weeks) was found to be 5.13 mg/kg/day; the TD50 (mouse, strain B6C3F1, males, by gavage, site: lung, lesion: alveolar/bronchiolar adenoma + alveolar/bronchiolar carcinoma, dosed 104 weeks, study length 105 weeks) came to 21.5 mg/kg/day. The TD50 reads like this: (mouse, strain B6C3F1, males, by gavage, site: lung, lesion: alveolar/bronchiolar adenoma, dosed 104 weeks, study length 105 weeks) 18.2 mg/kg/day; (mouse, strain B6C3F1, males, by gavage, site: multiple organs, lesion: malignant lymphoma, histiocytic type + malignant lymphoma, mixed type, dosed 104 weeks, study length 105 weeks) 11 mg/kg/day; (rat, strain Fischer 344, females, by gavage, site: any site (literature study), lesion: several types, types named in the paper, dosed 103 weeks, study length 104 weeks) 2.83 mg/kg/day; (rat, strain Fischer 344, females, by gavage, site: liver + multiple organs, lesion: cholangiocarcinoma + hepatocellular adenoma + hepatocellular carcinoma + mononuclear-cell leukemia, dosed 103 weeks, study length 104 weeks) 0.543 mg/kg/day; (rat, strain Fischer 344, females, by gavage, site: liver, lesion: cholangiocarcinoma, dosed 103 weeks, study length 104 weeks) 0.395 mg/kg/day; (rat, strain Fischer 344, females, by gavage, site: liver, lesion: hepatocellular adenoma + hepatocellular carcinoma + neoplastic nodule, dosed 103 weeks, study length 104 weeks) 11.2 mg/kg/day. The TD50 is 11.2 mg/kg/day (rat, strain Fischer 344, females, by gavage, site: liver, lesion: hepatocellular adenoma + hepatocellular carcinoma, dosed 103 weeks, study length 104 weeks); 11.8 mg/kg/day (rat, strain Fischer 344, females, by gavage, site: liver, lesion: hepatocellular adenoma, dosed 103 weeks, study length 104 weeks); 5.84 mg/kg/day (rat, strain Fischer 344, females, by gavage, site: multiple organs, lesion: mononuclear-cell leukemia, dosed 103 weeks, study length 104 weeks); 50.7 mg/kg/day (rat, strain Fischer 344, females, by gavage, site: urinary bladder, lesion: transitional-cell papilloma, dosed 103 weeks, study length 104 weeks); 12.7 mg/kg/day (rat, strain Fischer 344, males, by gavage, site: adrenal medulla, lesion: pheochromocytoma, benign, dosed 103 weeks, study length 104 weeks); 1.96 mg/kg/day (rat, strain Fischer 344, males, by gavage, site: any site (literature study), lesion: several types, types named in the paper, dosed 103 weeks, study length 104 weeks). The TD50 runs as follows: (rat, strain Fischer 344, males, by gavage, site: liver + multiple organs, lesion: cholangiocarcinoma + hepatocellular adenoma + hepatocellular carcinoma + mononuclear-cell leukemia, dosed 103 weeks, study length 104 weeks) 0.529 mg/kg/day; (rat, strain Fischer 344, males, by gavage, site: liver, lesion: cholangiocarcinoma, dosed 103 weeks, study length 104 weeks) 0.398 mg/kg/day; (rat, strain Fischer 344, males, by gavage, site: liver, lesion: hepatocellular adenoma + hepatocellular carcinoma + neoplastic nodule, dosed 103 weeks, study length 104 weeks) 2.31 mg/kg/day; (rat, strain Fischer 344, males, by gavage, site: liver, lesion: hepatocellular adenoma + hepatocellular carcinoma, dosed 103 weeks, study length 104 weeks) 2.31 mg/kg/day; (rat, strain Fischer 344, males, by gavage, site: liver, lesion: hepatocellular adenoma, dosed 103 weeks, study length 104 weeks) 3.1 mg/kg/day; (rat, strain Fischer 344, males, by gavage, site: liver, lesion: hepatocellular carcinoma, dosed 103 weeks, study length 104 weeks) 6.18 mg/kg/day. In addition, the TD50 runs as follows: (rat, strain Fischer 344, males, by gavage, site: multiple organs, lesion: mononuclear-cell leukemia, dosed 103 weeks, study length 104 weeks) 4.64 mg/kg/day; (rat, strain Fischer 344, males, by gavage, site: preputial gland, lesion: adenoma + adenoma, bilateral, dosed 103 weeks, study length 104 weeks) 21.5 mg/kg/day; (rat, strain Fischer 344, males, by gavage, site: skin, lesion: keratoacanthoma, dosed 103 weeks, study length 104 weeks) 16.4 mg/kg/day; (rat, strain Fischer 344, males, by gavage, site: subcutaneous tissue, lesion: fibroma, dosed 103 weeks, study length 104 weeks) 18.1 mg/kg/day; (rat, strain Fischer 344, males, by gavage, site: testis, lesion: interstitial-cell adenoma, dosed 103 weeks, study length 104 weeks) 3.14 mg/kg/day.
As to `CC=NO`, the TD50 (rat, strain Fischer 344, males, in drinking water, site: liver, lesion: hyperplastic nodule, dosed 110 weeks, study length 129 weeks) is 445 mg/kg/day.
As to `O=C1OC(CN2CCOCC2)CN1/N=C/c1ccc([N+](=O)[O-])o1` (stereo not drawn), the TD50 reads like this: (rat, strain Sprague-Dawley, females, in feed, site: all sites, lesion: lymphoblastic lymphoma, dosed 46 weeks, study length 66 weeks) 39 mg/kg/day; (rat, strain Sprague-Dawley, females, in feed, site: any site (literature study), lesion: several types, types named in the paper, dosed 46 weeks, study length 66 weeks) 2.81 mg/kg/day; (rat, strain Sprague-Dawley, females, in feed, site: kidney/pelvis, lesion: transitional-cell carcinoma, dosed 46 weeks, study length 66 weeks) 149 mg/kg/day; (rat, strain Sprague-Dawley, females, in feed, site: mammary gland, lesion: adenocarcinoma, dosed 46 weeks, study length 66 weeks) 6.33 mg/kg/day; (rat, strain Sprague-Dawley, females, in feed, site: mammary gland, lesion: several types, types named in the paper, dosed 46 weeks, study length 66 weeks) 2.81 mg/kg/day.
For `CCN(N=O)C(=O)NCCO`, the TD50 (hamster, strain Syrian Golden, females, by gavage, site: cervix uteri, lesion: one or several types, types not named, dosed 30 weeks, study length 75 weeks) is 1.04 mg/kg/day; the TD50 (hamster, strain Syrian Golden, females, by gavage, site: forestomach, lesion: benign tumor, dosed 30 weeks, study length 75 weeks) is 1.76 mg/kg/day; the TD50 (hamster, strain Syrian Golden, females, by gavage, site: liver, lesion: cholangioma, dosed 30 weeks, study length 75 weeks) came out at 27.5 mg/kg/day; the TD50 (hamster, strain Syrian Golden, females, by gavage, site: spleen, lesion: all vascular tumors, dosed 30 weeks, study length 75 weeks) was 3.05 mg/kg/day; the TD50 (rat, strain Fischer 344, females, in drinking water, site: mammary tissue, wider than the gland, lesion: carcinoma, dosed 30 weeks, study length 104 weeks) is 0.748 mg/kg/day; the TD50 (rat, strain Fischer 344, females, in drinking water, site: nervous system, lesion: one or several types, types not named, dosed 30 weeks, study length 104 weeks) was 0.714 mg/kg/day. Further, the TD50 was 0.956 mg/kg/day (rat, strain Fischer 344, females, in drinking water, site: skin, lesion: one or several types, types not named, dosed 30 weeks, study length 104 weeks); 0.972 mg/kg/day (rat, strain Fischer 344, females, in drinking water, site: uterus, lesion: one or several types, types not named, dosed 30 weeks, study length 104 weeks); 0.39 mg/kg/day (rat, strain Fischer 344, males, in drinking water, site: lung, lesion: one or several types, types not named, dosed 30 weeks, study length 104 weeks); 0.769 mg/kg/day (rat, strain Fischer 344, males, in drinking water, site: nervous system, lesion: one or several types, types not named, dosed 30 weeks, study length 104 weeks); 0.401 mg/kg/day (rat, strain Fischer 344, males, in drinking water, site: skin, lesion: one or several types, types not named, dosed 30 weeks, study length 104 weeks); 0.226 mg/kg/day (rat, strain Fischer 344, males, in drinking water, site: tunica vaginalis, lesion: mesothelioma, dosed 30 weeks, study length 104 weeks).
As to `CS(=O)(=O)OCCCNCCCOS(C)(=O)=O`, the TD50 by setting is: (mouse, strain B6C3F1, females, i.p., site: any site (literature study), lesion: several types, types named in the paper, dosed 52 weeks, study length 86 weeks) 1.17 mg/kg/day (inactive); (mouse, strain B6C3F1, females, i.p., site: lung, lesion: alveolar/bronchiolar adenoma + alveolar/bronchiolar carcinoma, dosed 52 weeks, study length 86 weeks) 6.88 mg/kg/day; (mouse, strain B6C3F1, males, i.p., site: all sites, lesion: lymphoma, dosed 52 weeks, study length 78 weeks) 37.7 mg/kg/day (inactive); (mouse, strain B6C3F1, males, i.p., site: any site (literature study), lesion: several types, types named in the paper, dosed 52 weeks, study length 78 weeks) 2.07 mg/kg/day; (rat, strain Sprague-Dawley, females, i.p., site: any site (literature study), lesion: several types, types named in the paper, dosed 36 weeks, study length 80 weeks) 0.616 mg/kg/day; (rat, strain Sprague-Dawley, females, i.p., site: liver, lesion: hepatocellular adenoma + hepatocellular carcinoma + neoplastic nodule, dosed 36 weeks, study length 80 weeks) 5.01 mg/kg/day. For the same compound, the TD50 is 2.74 mg/kg/day (rat, strain Sprague-Dawley, females, i.p., site: peritoneum, lesion: fibrosarcoma + sarcoma, NOS, dosed 36 weeks, study length 80 weeks); 1.3 mg/kg/day (rat, strain Sprague-Dawley, males, i.p., site: any site (literature study), lesion: several types, types named in the paper, dosed 36 weeks, study length 80 weeks); 0.915 mg/kg/day (rat, strain Sprague-Dawley, males, i.p., site: peritoneum, lesion: fibrosarcoma + fibroma + sarcoma, NOS, dosed 36 weeks, study length 80 weeks).
